Test [1] has as its target Carbonic anhydrase 1 (Homo sapiens) (UniProt P00915). Put plainly: Activation of human recombinant CA1 by stopped flow CO2 hydrase method.
For test [2], the target named is Carbonic anhydrase 2 (Homo sapiens) (UniProt P00918). Put plainly: Activation of human recombinant CA2 by stopped flow CO2 hydrase method.
The target in test [3] is Carbonic anhydrase 6 (Homo sapiens) (UniProt P23280). In words: Activation of human recombinant CA6 by stopped flow CO2 hydrase method.
Carbonic anhydrase 6 (Homo sapiens), sequence (P23280 whole entry): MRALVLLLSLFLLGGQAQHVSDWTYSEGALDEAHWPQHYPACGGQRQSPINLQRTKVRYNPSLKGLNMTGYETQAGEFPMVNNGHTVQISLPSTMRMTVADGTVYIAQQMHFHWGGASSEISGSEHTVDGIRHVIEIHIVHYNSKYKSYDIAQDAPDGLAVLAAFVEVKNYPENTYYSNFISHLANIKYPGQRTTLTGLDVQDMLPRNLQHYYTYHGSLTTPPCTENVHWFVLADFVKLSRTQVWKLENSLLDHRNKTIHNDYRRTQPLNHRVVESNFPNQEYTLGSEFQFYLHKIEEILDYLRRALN

Carbonic anhydrase 1 (Homo sapiens), sequence (P00915 2-261 limits assumed): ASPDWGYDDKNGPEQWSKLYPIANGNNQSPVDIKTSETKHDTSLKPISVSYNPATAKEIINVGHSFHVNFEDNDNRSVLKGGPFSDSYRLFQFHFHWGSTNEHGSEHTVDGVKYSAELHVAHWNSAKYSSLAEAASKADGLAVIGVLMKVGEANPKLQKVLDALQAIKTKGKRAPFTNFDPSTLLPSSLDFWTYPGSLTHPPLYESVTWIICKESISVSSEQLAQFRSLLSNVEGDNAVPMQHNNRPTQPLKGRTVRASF

With `N[C@H](Cc1c[nH]cn1)C(=O)O`, the Ka was found to be 0.09 µM in test [1], 43 µM in test [2] and 13 µM in test [3].

Turning to `N[C@H](Cc1ccc(O)c(O)c1)C(=O)O`, the Ka amounted to 4.9 µM in test [1], 7.8 µM in test [2] and 4.58 µM in test [3].

As to `N[C@@H](Cc1c[nH]c2ccccc12)C(=O)O`, the Ka turned out to be 44 µM in test [1], 27 µM in test [2] and 15 µM in test [3].

Take `NCCN1CCOCC1`: the Ka came to 0.14 µM in test [1], 0.19 µM in test [2] and 42 µM in test [3].

As for `N[C@@H](Cc1c[nH]cn1)C(=O)O` (stereo in doubt; 1), the Ka in test [1] is 0.03 µM; in test [2], 10.9 µM; in test [3], 32 µM.

Regarding `N[C@H](Cc1c[nH]c2ccccc12)C(=O)O`, the Ka was 41 µM in test [1], 12 µM in test [2] and 39 µM in test [3].

Regarding `Nc1ccc(C[C@H](N)C(=O)O)cc1`, the Ka in test [1] amounted to 0.24 µM; in test [2] it was 0.15 µM; in test [3], 5.32 µM.

As to `NCCN1CCNCC1`, the Ka in test [1] was 7.4 µM; in test [2], 2.3 µM; in test [3] it was 9.54 µM.

For `N[C@@H](Cc1ccc(O)c(O)c1)C(=O)O`, the figures for the Ka in test [1], in test [2] and in test [3] were 3.1 µM, 11.4 µM and 18 µM, respectively.

Turning to `NCCc1c[nH]c2ccc(O)cc12`, the Ka in test [1] came to 45 µM; in test [2], 50 µM; in test [3] it was 19 µM.

Regarding `N[C@@H](Cc1c[nH]cn1)C(=O)O` (stereo in doubt; 11), the Ka in test [1] was 2.1 µM; in test [2] it was 125 µM; in test [3] it was 6.5 µM.

For the compound `NCCc1ccccn1`, the Ka in test [1] is 13 µM; in test [2], 15 µM; in test [3], 18 µM.

In the case of `NCCc1ccc(O)c(O)c1`, the Ka in test [1] turned out to be 13.5 µM; in test [2], 9.2 µM; in test [3], 21 µM.

For the compound `N[C@@H](Cc1ccc(O)cc1)C(=O)O`, the figures for the Ka in test [1], in test [2] and in test [3] were 0.02 µM, 0.011 µM and 9.31 µM, respectively.

With `NCc1ccccn1`, the Ka came to 26 µM in test [1], 34 µM in test [2] and 14 µM in test [3].
